Measured values reported in patent US6838436B1, “Inhibitors of proteasomal activity for stimulating bone growth” (Osteoscreen Inc., priority 1998, dated 2005).

Tested on: hair follicles of skin explants
Assay: Skin explants from mice during telogen (Example 16)
Type: cell-based
Settings: 72 hours
Source text: In the untreated control explants, the follicles were few and small.

Nc1cc(N2CCCCC2)nc(N)[n+]1[O-] [Minoxidil]
concentrations causing these changes, relative to the proteasome inhibitors: 10,000 fold
